Data from patent US9290570B2, “Pan-ELR+ CXC Chemokine Antibodies” (Eli Lilly and Company, priority 2013, dated 2016).

Columns and labels:
[1] = system: SKOV3-Luc ovarian cancer cells; experiment: SKOV3-Luc ovarian cancer xenograft model; assay type: in vivo, mice; conditions: cisplatin 2.5 mg/kg, Antibody 1 20 mg/kg once a week intraperitoneal
Protocol: SKOV3-Luc is a human ovary cancer cell line that expresses firefly luciferase gene. SKOV3-Luc cells are often used in vivo to establish human ovarian adenocarcinoma tumor growth.
SKOV3-Luc ovarian cancer cells were mixed 1:1 with matrigel and implanted subcutaneously in the right rear flank of athymic nude female mice at 3.0×10^6 cells per injection. Mice were randomized into 4 groups at baseline according to tumor volume after the xenografts were grown to an average tumor volume of 200 mm^3 Mice received either control IgG4 antibody (2.5 mg/kg once a week), cisplatin (2.5 mg/kg once a week), Antibody 1 (20 mg/kg once a week), or a combination of cisplatin (2.5 mg·kg once a week) and Antibody 1 (20 mg/kg once a week) by intraperitoneal injection.

[2] = biological target: T1, human CXCR2 (Homo sapiens, UniProt P25025); experiment: U937-huCXCR2 FLIPR activity of wild type and mutant human CXCL8; assay type: cell-based; conditions: activity of the CXCL8 variant itself on U937-huCXCR2 cells
T1 construct: expressed in transfected cells; host or cells: U937 monocytic cell line, retrovirally transduced (U937-huCXCR2)
T1 sequence (P25025 1-360): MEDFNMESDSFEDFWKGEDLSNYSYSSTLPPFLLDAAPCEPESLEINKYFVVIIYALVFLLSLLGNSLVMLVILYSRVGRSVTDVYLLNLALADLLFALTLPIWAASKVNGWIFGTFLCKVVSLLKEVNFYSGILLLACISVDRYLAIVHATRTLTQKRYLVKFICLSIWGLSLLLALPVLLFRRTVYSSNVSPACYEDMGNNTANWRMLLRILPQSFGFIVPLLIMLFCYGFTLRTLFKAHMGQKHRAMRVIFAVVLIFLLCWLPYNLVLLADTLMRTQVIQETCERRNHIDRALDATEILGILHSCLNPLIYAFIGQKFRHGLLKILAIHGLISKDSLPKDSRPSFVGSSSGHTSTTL
Protocol: Wild type and mutant human CXCL8 are tested for biologic activity and for neutralization by Antibody 1 using the U937-huCXCR2 assay. U937-huCXCR2 is a monocytic cell line transduced with retrovirus for expression of human CXCR2. A description of the U937-huCXCR2 assay is found below under Neutralizing Assays.
CXCL8 mutants are serially diluted in Assay Buffer containing 0.2% BSA in wells of v-bottom 96-well polypropylene plates. Ligand concentrations are 3 times the final assay concentration (final assay concentrations range from 300 to 0.0051 nM). A cell plate and a ligand plate are loaded into a Fluorescent Imaging Plate Reader (FLIPR-3, Molecular Devices) programmed to transfer 50 μL of ligand to wells of the cell plate. Fluorescence is recorded at 1 second intervals for 90 seconds. The change in fluorescence [delta relative fluorescence units (DRFU), Max RFU-Min RFU] is calculated from images 10 to 90. DRFU versus log (ligand concentration) is plotted and EC50 values are determined by nonlinear regression using Graph Pad Prism. Assays are performed in triplicate over three assay plates.

U937 FLIPR activity (EC50) [2]	Compound	tumor growth inhibition compared to isotype control [1]
–	N.N.[Cl][Pt][Cl] [Cisplatin, cisplatin]	did not show statistically significant tumor growth inhibition
Not Active	R6A: R6A point mutant of human CXCL8 (SEQ ID NO: 27) [Antibody R6A]	–
